From patent publication US20210052566A1, “METHODS FOR TREATING HEPATITIS B VIRUS (HBV) INFECTION” (INSERM (INSTITUT NATIONAL DE LA SANTÉ ET DE LA RECHERCHE …, priority 2018, published 2021) come the findings set out here.

Experiment [1] deals with HDV genotype 1. Kind of experiment: Hepatitis delta virus replication in infected dHepaRG cells (intracellular HDV RNA, RTqPCR). The following applies: HDV MOI 10 vge/cell, 10 microM three times post-infection. The class given is cell-based. Here is the method:
(§1) FIG. 1. Experimental outlines. Treatment schemes: (a) Treatments in pre-infection: dHepaRG cells were treated for 24 h (at day −1) with 100 nM of PreS1 peptide (PreS1-pep) or 10 μM of 1C8, or untreated (NT). At day 0, cells were inoculated with HBV (MOI=250) or with HDV (MOI=25) in the presence of drugs for 24 h. For the tenofovir control (TDF at 10 μM), cells were treated at day 1 and 4 post-infection. Supernatant and cells were harvested at day 7 post-infection. (b) Treatments in post-infection: dHepaRG cells were inoculated with HBV (MOI=250) or with HDV (MOI=25). At days 4, 7 and 9 post infection, cells were treated with TDF 10 μM, lamivudine (3TC) at 10 μM, 1C8 10 μM or untreated (NT). Supernatant and cells were harvested at day 11 postinfection.
FIG. 5. […] B) HBs and HBe secreted antigens in supernatant were quantified by ELISA, whereas HBV DNA contained in virions was quantified by qPCR after viral nucleic acid extraction from supernatant. C) Intracellular HDV RNA was quantified by RTqPCR after total RNA extraction from cells. D) Viability was monitored in 1C8-treated (or control treated; puromycin is a positive toxic molecule) cells by CellTiter-Glo® luminescent cell viability assay. […] Statistics were done by two-tailed Mann-Whitney test, with following significativity: *P<0.05, **P<0.01, ***P<0.001, ****P<0.0001. nd=not determined

Experiment [2] deals with HDV genotype 1. Kind of experiment: Establishment of HDV infection in dHepaRG (treatment 24 h before and during inoculation). The class given is cell-based, hepatitis delta virus. The note with it: 1C8 10 microM, Entry Inh. 100 nM. As to the method:
as §1
FIG. 7. Effect of 1C8 on de novo establishment of ccDNA in dHepaRG (genotype D). […] B) HBs and HBe secreted antigens in supernatant were quantiUied by ELISA, whereas HBV DNA contained in virions was quantified by qPCR after viral nucleic acid extraction from supernatant. […] Statistics were done by two-tailed Mann-Whitney test, with following signiUicativity: *P<0.05, **P<0.01, ***P<0.001, ****P<0.0001. nd=not determined.

In experiment [3] the test system is HBV genotype D. Kind of experiment: HBV replication in persistently infected primary human hepatocytes (PHH). The class given is cell-based, Hepatitis B virus. The note with it: 10 microM. The text has this: FIG. 9. Effect of 1C8 on persistently infected primary human hepatocytes. Two different batches of PHH from two different donors were used in these experiments (Batch 1: panels A, B, and C; Batch 2: panels D, and E). A) PHH were infected with HBV genotype D at a MOI of 100 vge/cell for 4 days before being treated trice every 2-3 days with indicated molecules at a concentration of 10 microM. B) Intracellular total RNA were extracted from cells and subjected to RT-qPCR to detect HBV pgRNA and total HBV RNA. C) HBs and HBe secreted antigens in supernatant were quantified by ELISA. D) PHH were infected with HBV genotype D at a MOI of 100 vge/cell. 6 days after the infection, cells were treated five times with indicated molecules at a concentration of 10 microM. Supernatant was harvested after each treatment and cells were harvested at day 13 post infection. E) HBe and HBs secreted antigens in supernatant were quantified by ELISA. Results are the mean+SD of n=3 (panels A, B, and C) or n=4 (panels D and E).
Primary human hepatocytes (PHH) were freshly prepared from human liver resections obtained from the Centre Léon Bérard (Lyon) with French ministerial authorizations as previously described (Leycluse and Alexandre, 2010). […]
Secreted HBe and HBs antigens and intracellular HBV RNA were analyzed as described in EXAMPLE 1.

Turning to `Cn1ccc(=O)c(C(=O)Nc2nsc3ccc([N+](=O)[O-])cc23)c1` [1C8, 4-pyridinonebenzisothiazole carboxamide], the “inhibition of replication of hepatitis delta virus” value in experiment [1] is listed as “not capable to inhibit”. Further, the “block of the establishment of HDV infections” value in experiment [2] is listed as “unable to block”. Also, the “amount of intracellular viral RNAs (total and pgRNA)” value in experiment [3] is reported as “significant reduction”. In experiment [3] (two donors, MOI 100 vge/cell), the “decrease of secreted viral antigens HBe and HBs (viral replication)” value is over 60%.
